Source: article PMC12655172, “Borylated 5-Membered Ring Iminosugars: Synthesis and Biological Evaluation for Glycosidase Inhibition and Anticancer Properties for Application in Boron Neutron Capture Therapy (BNCT)—Part 2” (Pharmaceuticals, 2025)

Tests used:
[1] = system: T1, amyloglucosidase (A. niger); assay: Glycosidase inhibition (Table 2 panel); type: biochemical
T1 construct: purchased Sigma-Aldrich
Description: (§1) The enzymes α-D-glucosidase (yeast), β-D-glucosidases (almond, bovine liver), α-D-galactosidase (coffee beans), β-D-galactosidase (bovine liver), α-D-mannosidase (Jack bean), β-D-mannosidase (snail), α-L-rhamnosidase (P. decumbens), α-L-fucosidase (bovine kidney), trehalase (porcine kidney), β-D-glucuronidases (E. coli, bovine liver), amyloglucosidase (A. niger), para-nitrophenyl glycosides, and various disaccharides were purchased from Sigma-Aldrich Co (St. Louis, MO, USA).
(§2) Brush border membranes were prepared from the rat small intestine according to the method of Kessler et al., and were assayed at pH 6.8 for rat intestinal maltase using maltose. […] The reaction was stopped by heating at 100 °C for 3 min. After centrifugation (600 g; 10 min), the resulting reaction mixture was added to the Glucose CII-test Wako (Wako Pure Chemical Ind., Osaka, Japan). […] Other glycosidase activities were determined using an appropriate para-nitrophenyl glycoside as substrate at the optimum pH of each enzyme. The reaction mixture contained the substrate ([…]) and the appropriate amount of enzyme. The reaction was stopped by the addition of Na2CO3 (400 μM). The released para-nitrophenol was measured spectrometrically at 400 nm. All reactions were run in methanol.

α-D-glucosidase (yeast) [2] = biological target: T2, α-D-glucosidase (yeast) (Saccharomyces cerevisiae, UniProt P53341); assay: Glycosidase inhibition (Table 2 panel); type: biochemical; details: read-out: inhibition % α-D-Glucosidase Yeast
T2 construct: purchased Sigma-Aldrich
T2 sequence (P53341 whole entry): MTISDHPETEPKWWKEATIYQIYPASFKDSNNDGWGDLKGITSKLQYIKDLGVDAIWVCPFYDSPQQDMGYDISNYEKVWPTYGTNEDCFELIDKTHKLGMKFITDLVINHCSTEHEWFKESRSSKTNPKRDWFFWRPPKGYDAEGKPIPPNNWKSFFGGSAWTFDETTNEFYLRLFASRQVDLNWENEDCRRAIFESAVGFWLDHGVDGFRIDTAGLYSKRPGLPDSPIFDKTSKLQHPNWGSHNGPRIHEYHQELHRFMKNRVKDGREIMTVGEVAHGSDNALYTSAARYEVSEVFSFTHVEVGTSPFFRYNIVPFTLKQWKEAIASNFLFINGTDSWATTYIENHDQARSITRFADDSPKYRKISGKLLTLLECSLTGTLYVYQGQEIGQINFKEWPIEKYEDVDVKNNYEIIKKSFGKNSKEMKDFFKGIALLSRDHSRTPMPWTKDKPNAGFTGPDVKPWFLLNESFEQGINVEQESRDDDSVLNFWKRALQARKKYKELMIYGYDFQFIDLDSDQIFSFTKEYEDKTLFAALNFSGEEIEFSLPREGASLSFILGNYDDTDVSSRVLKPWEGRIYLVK
Description: as §1, §2

[3] = system: T3, β-D-glucuronidase (E. coli); assay: Glycosidase inhibition (Table 2 panel); type: biochemical
T3 construct: purchased Sigma-Aldrich
Description: as §1, §2

α-D-glucosidase (yeast) [4] = biological target: T2, α-D-glucosidase (yeast); assay: Glycosidase inhibition (Table 3 panel); type: biochemical; details: 1 mg/mL aqueous solution, run in water; for inhibition at 1000 µg/mL (stock): read-out: Percentage inhibition α-D-Glucosidase Yeast
Method: All enzymes and para-nitrophenyl substrates were purchased from Sigma. Enzymes were assayed at 27 °C in citric acid (0.1 M)/disodium hydrogen phosphate (0.2 M) buffers at the optimum pH for the enzyme. The incubation mixture consisted of […] of 1 mg/mL aqueous solution of extract and […] of the appropriate 5 μM para-nitrophenyl substrate made up in buffer at the optimum pH for the enzyme. […] Assays were carried out in triplicate, and the values given are means of the three replicates per assay. All reactions were run in water.

β-D-glucosidase (almond) = assay: Glycosidase inhibition (Table 3 panel); type: biochemical; details: 1 mg/mL aqueous solution; run in water
Method: (§3) All enzymes and para-nitrophenyl substrates were purchased from Sigma. Enzymes were assayed at 27 °C in citric acid (0.1 M)/disodium hydrogen phosphate (0.2 M) buffers at the optimum pH for the enzyme. The incubation mixture consisted of […] of 1 mg/mL aqueous solution of extract and […] of the appropriate […] para-nitrophenyl substrate made up in buffer at the optimum pH for the enzyme. The reactions were stopped by addition of […] 0.4 M glycine (pH 10.4) during the exponential phase of the reaction, which had been determined at the beginning using uninhibited assays in which water replaced the inhibitor. Final absorbances were read at 405 nm using a Versamax microplate reader (Molecular Devices, Wokingham, UK). Assays were carried out in triplicate, and the values given are means of the three replicates per assay. All reactions were run in water.

[5] = system: β-D-glucuronidase (bovine liver); assay: Glycosidase inhibition (Table 3 panel); type: biochemical; details: 1 mg/mL aqueous solution; run in water
Method: as §3

[6] = Sample appearance on sample preparation in water; type: physicochemical; details: 1 mL of water was added to 1 mg solid
[7] = system: A2780 (ovarian carcinoma); assay: Cancer screening, MTT growth inhibition; type: cell-based; details: Homo sapiens; for inhibition at 25 µM: A2780, 25 µM of drug, 72 h, read-out: DOSE SCREEN percentage (%) cell growth inhibition A2780 Ovarian; for GI50: A2780, 72 h, read-out: DOSE RESPONSE GI50 A2780 Ovarian
Method: (§4) For Table 4, all test agents were prepared as stock solutions ([…]) in dimethyl sulfoxide (DMSO) and stored at −20 °C. Cell lines used in the study included HT29 (colorectal carcinoma), A2780 (ovarian carcinoma), H460 (lung carcinoma), A431 (skin carcinoma), MiaPaCa-2 (pancreatic carcinoma), and SMA560 (spontaneous murine astrocytoma), together with MCF10A (non-tumour derived normal breast cell line). Cell line sources: the HT29, H460, and MiaPaCa-2, together with MCF10A were purchased from ATCC. The A2780 and A431 were purchased from the European Collection of Cell Culture (ECACC). All cell lines were incubated in a humidified atmosphere 5% CO2 at 37 °C. The cancer cell lines were maintained in Dulbecco’s modified Eagle’s medium (DMEM; Sigma, Truganina, Australia) supplemented with foetal bovine serum (10%), sodium pyruvate ([…]), penicillin (100 IUmL^−1), streptomycin (100 µg mL^−1), and L-glutamine ([…]).
(§5) Growth inhibition was determined by plating cells in duplicate in medium (100 µL) at a density of 2500–4000 cells per well in 96-well plates. On day 0 (24 h after plating), when the cells are in logarithmic growth, medium (100 µL) with or without the test agent was added to each well. […] Each data point is the mean ± the standard error of the mean (SEM) calculated from three replicates which were performed on separate occasions and separate cell line passages.

A431 (skin carcinoma) = assay: Cancer screening, MTT growth inhibition; type: cell-based; details: Homo sapiens; for inhibition at 25 µM: A-431, 25 µM of drug, 72 h, read-out: DOSE SCREEN percentage (%) cell growth inhibition A431 Skin; for GI50: A-431, 72 h, read-out: DOSE RESPONSE GI50 A431 Skin
Method: as §4, §5

H460 (lung carcinoma) = assay: Cancer screening, MTT growth inhibition; type: cell-based; details: Homo sapiens; for inhibition at 25 µM: NCI-H460, 25 µM of drug, 72 h, read-out: DOSE SCREEN percentage (%) cell growth inhibition H460 Lung; for GI50: NCI-H460, 72 h, read-out: DOSE RESPONSE GI50 H460 Lung
Method: as §4, §5

[8] = system: HT29 (colorectal carcinoma); assay: Cancer screening, MTT growth inhibition; type: cell-based; details: Homo sapiens; for inhibition at 25 µM: HT-29, 25 µM of drug, 72 h, read-out: DOSE SCREEN percentage (%) cell growth inhibition HT29 Colon; for GI50: HT-29, 72 h, read-out: DOSE RESPONSE GI50 HT29 Colon
Method: as §4, §5

[9] = system: MIA-Pa-Ca2 (pancreatic carcinoma); assay: Cancer screening, MTT growth inhibition; type: cell-based; details: Homo sapiens; for inhibition at 25 µM: MIA PaCa-2, 25 µM of drug, 72 h, read-out: DOSE SCREEN percentage (%) cell growth inhibition MIA-Pa-Ca2 Pancreatic; for GI50: MIA PaCa-2, 72 h, read-out: DOSE RESPONSE GI50 MIA-Pa-Ca2 Pancreatic
Method: as §4, §5

| Compound | inhibition % Amyloglucosidase A. niger ([1]; at 100 μM) | inhibition % Amyloglucosidase A. niger ([1]; at 1000 μM) | inhibition at 100 µM (α-D-glucosidase (yeast) [2]) [%] | inhibition at 1000 µM (α-D-glucosidase (yeast) [2]) [%] | inhibition % β-D-Glucuronidase E. coli ([3]; at 100 μM) | inhibition % β-D-Glucuronidase E. coli ([3]; at 1000 μM) | inhibition at 1000 µg/mL (stock) (α-D-glucosidase (yeast) [4]) [%] | Percentage inhibition β-D-Glucosidase Almond (β-D-glucosidase (almond)) [%] | Percentage inhibition β-D-Glucuronidase Bovine Liver [5] [%] | Sample Appearance [6] | inhibition at 25 µM [7] [%] | GI50 [7] [µM] | inhibition at 25 µM (A431 (skin carcinoma)) [%] | GI50 (A431 (skin carcinoma)) [µM] | inhibition at 25 µM (H460 (lung carcinoma)) [%] | GI50 (H460 (lung carcinoma)) [µM] | inhibition at 25 µM [8] [%] | GI50 [8] [µM] | inhibition at 25 µM [9] [%] | GI50 [9] [µM] | other results |
| --- | --- | --- | --- | --- | --- | --- | --- | --- | --- | --- | --- | --- | --- | --- | --- | --- | --- | --- | --- | --- | --- |
| OB(O)c1cccc(CN2C[C@@H](O)[C@H]3OC(O)[C@H](O)[C@H]32)c1 (stereo partly drawn) [meta 3, N-(3-Methylphenylboronic acid)-3,6-dideoxy-3,6-imino-D-gulofuranose] | ^cNI ^d(24.6%) | ^aNI ^b(1.5%) | 1.4 | 37 | ^cNI ^d(16.2%) | ^aNI ^b(36.9%) | -16.7 | 61.7 | 13.3 | In solution | 18 ± 1 | > 50 | 3 | > 50 | 2 ± 2 | > 50 | < 0 | > 50 | 17 ± 4 | > 50 | – |
| OC[C@H](O)[C@@H]1[C@H](O)[C@H](O)CN1Cc1cccc(B(O)O)c1 [meta 4, N-(3-Methylphenylboronic acid)-1,4-dideoxy-1,4-imino-L-gulitol] | ^cNI ^d(6.6%) | ^aNI ^b(3.6%) | 8.1 | 4.9 | ^cNI ^d(3.5%) | ^aNI ^b(20.6%) | 23.5 | 47.9 | −2.7 | In solution | 18 ± 5 | > 50 | 6 ± 1 | > 50 | 7 ± 1 | > 50 | < 0 | > 50 | 16 ± 5 | > 50 | – |
| CC1(C)O[C@H]2O[C@H]3[C@@H]([C@H]2O1)N(Cc1cccc(B(O)O)c1)C[C@H]3O [meta 5, N-(3-Methylphenylboronic acid)-3,6-dideoxy-3,6-imino-1,2-O-isopropylidene-α-D-glucofuranose] | ^cNI ^d(0%) | – | 7.8 | – | ^cNI ^d(4.1%) | – | 14.8 | 7.7 | −0.9 | In solution | 32 ± 7 | > 50 | 8 ± 8 | > 50 | 10 ± 2 | > 50 | < 0 | > 50 | 16 ± 1 | > 50 | Percentage inhibition α-D-Glucosidase Yeast (α-D-glucosidase (yeast) [4]): 13.7% |
| CC1(C)O[C@H]2O[C@H]3[C@@H]([C@H]2O1)N(Cc1cccc(O)c1)C[C@H]3O [meta 6] | ^cNI ^d(4.8%) | – | 0 | – | ^cNI ^d(0%) | – | 6.6 | 0.7 | 3.6 | In solution | 23 ± 6 | > 50 | 4 ± 9 | > 50 | 6 ± 3 | > 50 | 4 ± 3 | > 50 | 12 ± 4 | > 50 | – |
